Assay results from article PMC10897196, “Structure–activity characteristics of phenylalanine analogs selectively transported by L-type amino acid transporter 1 (LAT1)” (Scientific Reports, 2024).
Values joined by “and” are separate entries in the source; they are usually repeats but may differ in a detail not shown here. Equal values may be shown once.

What was measured:
[1] = design: method as in PMID 11901210; details: correlated with LAT1 Ki; cited from earlier work
[2] = molecular target: T1, human LAT1 (Homo sapiens, UniProt Q01650); assay: Inhibition of L-[14C]leucine uptake in HEK293-hLAT1 cells; assay type: cell-based; details: for Inhibition of LAT1-mediated L-[14C]leucine uptake (in words, rank order): 1 μM L-[14C]leucine, 1 min, compounds at 10, 30, 100 μM; for Ki: L-[14C]leucine uptake, HEK293-hLAT1, mean ± S.E.M., n = 3–4, read-out: Ki (μM) LAT1; for Ki ratio (LAT2/LAT1): LAT1 selectivity, LAT2 Ki over LAT1 Ki
T1 construct: expressed in transfected cells
T1 sequence (Q01650 whole entry, one chain of several): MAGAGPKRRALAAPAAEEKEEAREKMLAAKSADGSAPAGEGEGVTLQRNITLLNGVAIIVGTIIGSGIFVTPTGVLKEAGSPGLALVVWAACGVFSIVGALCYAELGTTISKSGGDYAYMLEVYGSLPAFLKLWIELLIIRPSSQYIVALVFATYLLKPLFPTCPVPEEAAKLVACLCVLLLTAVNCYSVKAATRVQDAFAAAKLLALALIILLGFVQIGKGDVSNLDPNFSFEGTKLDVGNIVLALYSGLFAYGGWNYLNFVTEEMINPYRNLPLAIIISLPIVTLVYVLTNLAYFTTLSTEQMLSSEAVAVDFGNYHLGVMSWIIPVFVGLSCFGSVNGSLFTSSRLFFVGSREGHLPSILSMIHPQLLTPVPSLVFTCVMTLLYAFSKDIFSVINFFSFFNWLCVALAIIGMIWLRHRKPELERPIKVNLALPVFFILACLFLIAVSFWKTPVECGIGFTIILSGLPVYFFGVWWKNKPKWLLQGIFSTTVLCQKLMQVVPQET
Description: (§1) In this study, we used the HEK293 cells stably expressing human LAT1 or human LAT2, which form a heterodimeric complex with endogenous 4F2hc (CD98hc), required for plasma membrane localization. We first explored the impact of halogen group positioning in the benzene ring of Phe (Fig. 1) on its interaction with LAT1 and LAT2. […] We conducted inhibition experiments to measure the uptake of L-[^14C]leucine by LAT1 and L-[^14C]alanine by LAT2 in the presence or absence of Phe derivatives with an iodo group at position 2, 3, or 4 in the benzene ring.
(§2) The inhibition experiments were performed as described previously. HEK293-hLAT1 (1.5 × 10^5 cells/well) or HEK293-hLAT2 (2 × 10^5 cells/well) cells were plated onto poly-D-lysine-coated 24-well plates (Corning, New York, USA). Following a 2-day culture period, the uptake of 1 μM L-[^14C]leucine or L-[^14C]alanine was measured for 1 min in the absence or presence of non-radiolabeled test compounds at concentrations of 10, 30, and 100 μM. Radioactivity was quantified using a β-scintillation counter (LSC-3100; Aloka, Tokyo, Japan), and protein concentrations were determined with a Micro BCA Protein Assay Kit (Thermo Fisher Scientific, Rockford, IL). To calculate Ki values, the concentration-dependent uptake of L-[^14C]leucine or L-[^14C]alanine was analyzed in the presence and absence of test compounds[49]. The data were plotted against substrate concentration and fitted to Michaelis–Menten kinetics. Ki values were derived using nonlinear regression analysis with the enzyme kinetics inhibition module in GraphPad Prism software (Version 10.0.2; GraphPad Software Inc., San Diego, CA, USA).

[3] = molecular target: T2, human LAT2 (Homo sapiens, UniProt Q9UHI5); assay: Inhibition of L-[14C]alanine uptake in HEK293-hLAT2 cells; assay type: cell-based; details: for Inhibition of LAT2-mediated L-[14C]alanine uptake (in words, rank order): 1 μM L-[14C]alanine, 1 min, compounds at 10, 30, 100 μM; for Ki: L-[14C]alanine uptake, HEK293-hLAT2, mean ± S.E.M., n = 3–4, read-out: Ki (μM) LAT2
T2 construct: expressed in transfected cells
T2 sequence (Q9UHI5 1-535): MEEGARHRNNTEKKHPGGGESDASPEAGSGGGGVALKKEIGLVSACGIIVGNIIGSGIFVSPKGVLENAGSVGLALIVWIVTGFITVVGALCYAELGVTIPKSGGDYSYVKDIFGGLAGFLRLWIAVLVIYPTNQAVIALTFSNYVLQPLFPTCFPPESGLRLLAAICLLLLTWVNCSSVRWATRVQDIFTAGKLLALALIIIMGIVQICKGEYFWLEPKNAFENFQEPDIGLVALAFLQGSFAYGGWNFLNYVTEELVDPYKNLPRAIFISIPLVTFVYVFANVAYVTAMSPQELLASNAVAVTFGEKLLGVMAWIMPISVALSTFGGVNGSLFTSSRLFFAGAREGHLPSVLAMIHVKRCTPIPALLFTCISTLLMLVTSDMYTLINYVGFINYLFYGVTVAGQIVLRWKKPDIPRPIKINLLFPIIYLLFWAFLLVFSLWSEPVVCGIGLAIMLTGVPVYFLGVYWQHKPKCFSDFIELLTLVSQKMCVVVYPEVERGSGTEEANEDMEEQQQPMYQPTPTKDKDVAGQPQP
T2 sequence (P08195 1-529 partner): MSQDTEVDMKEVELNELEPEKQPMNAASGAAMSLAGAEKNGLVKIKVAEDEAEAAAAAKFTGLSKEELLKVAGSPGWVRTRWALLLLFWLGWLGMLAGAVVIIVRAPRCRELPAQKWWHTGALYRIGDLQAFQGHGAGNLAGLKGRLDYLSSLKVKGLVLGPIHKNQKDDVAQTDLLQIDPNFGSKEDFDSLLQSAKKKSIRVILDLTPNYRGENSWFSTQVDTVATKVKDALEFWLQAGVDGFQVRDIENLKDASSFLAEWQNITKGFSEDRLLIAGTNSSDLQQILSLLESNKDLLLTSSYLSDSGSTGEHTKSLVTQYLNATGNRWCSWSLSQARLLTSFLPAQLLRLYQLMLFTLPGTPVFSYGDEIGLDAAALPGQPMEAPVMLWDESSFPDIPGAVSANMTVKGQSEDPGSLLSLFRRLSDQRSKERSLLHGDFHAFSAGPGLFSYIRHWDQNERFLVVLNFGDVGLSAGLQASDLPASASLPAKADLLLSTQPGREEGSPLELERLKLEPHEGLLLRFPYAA
Description: as §1, §2

[4] = molecular target: T1, human LAT1; assay: Efflux of pre-loaded L-[14C]leucine from HEK293-hLAT1 cells induced by extracellular compounds; assay type: cell-based; details: 1 min; for Km / Vmax of efflux (% radioactivity/min): LAT1, L-[14C]leucine efflux, mean ± S.E.M., n = 3; for LAT1-mediated L-[14C]leucine efflux induced (in words): compounds at 10, 30, 100 μM
Method: (§3) We evaluated the efflux of pre-loaded L-[^14C]leucine from LAT1 and pre-loaded L-[^14C]alanine from LAT2 induced by extracellularly applied compounds.
(§4) Efflux experiments were performed as described previously. Cells cultured 48 h were pre-loaded with 5 μM L-[^14C]leucine or L-[^14C]alanine for 10 min at 37 °C. The cells were then washed, and the efflux was induced by incubating cells for 1 min in either the absence or presence of non-radiolabeled test compounds at indicated concentrations. The efflux time of 1 min fell within the linear range of time-dependent substrate efflux mediated by LAT1 and LAT2 (Supplementary Fig. S2). Following incubation, the medium was collected and radioactivity was measured in both the medium and the cells. Efflux was quantified as the percentage of radioactivity released into the medium, calculated using the formula: radioactivity of medium/(radioactivity of medium + radioactivity of cells) × 100%.
(§5) The kinetic parameters for the efflux of L-[^14C]leucine or L-[^14C]alanine induced by various concentrations of extracellularly-applied test compounds were analyzed. The baseline efflux values—those obtained in the absence of test compounds—were subtracted from the values measured in the presence of the compounds. The resultant data were fitted to Michaelis–Menten kinetics to determine the Km and Vmax by nonlinear regression analysis using “enzyme kinetics-velocity as a function of substrate” module within GraphPad Prism software.

[5] = molecular target: T2, human LAT2; assay: Efflux of pre-loaded L-[14C]alanine from HEK293-hLAT2 cells induced by extracellular compounds; assay type: cell-based; details: 1 min; for Vmax of efflux (% radioactivity/min): LAT2, L-[14C]alanine efflux, mean ± S.E.M., n = 3; for LAT2-mediated L-[14C]alanine efflux induced (in words): compounds at 10, 30, 100 μM
Method: as §3, §4, §5

N[C@@H](Cc1ccc(O)cc1)C(=O)O [Tyr]
Carbonyl oxygen charge [1]: −0.5635

N[C@@H](Cc1ccccc1Cl)C(=O)O [2-Cl-Phe]
Inhibition of LAT1-mediated L-[14C]leucine uptake (in words, rank order) [2]: Phe < 2-Cl-Phe

N[C@@H](Cc1cccc(F)c1)C(=O)O [3-F-Phe]
Inhibition of LAT2-mediated L-[14C]alanine uptake (in words, rank order) [3]: Phe < 3-F-Phe
Inhibition of LAT1-mediated L-[14C]leucine uptake (in words, rank order) [2]: Phe < 3-F-Phe

N[C@@H](Cc1cccc(I)c1)C(=O)O [3-I-Phe]
Inhibition of LAT2-mediated L-[14C]alanine uptake (in words, rank order) [3]: 4-I-Phe < 3-I-Phe and 3-Br-Phe < 3-I-Phe
Inhibition of LAT1-mediated L-[14C]leucine uptake (in words, rank order) [2]: markedly inhibited and 3-Br-Phe < 3-I-Phe

C[C@](N)(Cc1ccc(O)c(O)c1)C(=O)O [α-methyl-DOPA]
Carbonyl oxygen charge [1]: −0.5558

N[C@@H](Cc1ccc(O)c(O)c1)C(=O)O [L-DOPA]
Carbonyl oxygen charge [1]: −0.5633

N[C@@H](Cc1ccccc1I)C(=O)O [2-I-Phe, 2-iodo-L-phenylalanine]
Inhibition of LAT2-mediated L-[14C]alanine uptake (in words, rank order) [3]: 2-I-Phe = Phe
Ki [3]: 87.6 ± 11.9 µM
Km [4]: 2.79 ± 0.76 µM
Vmax of efflux (% radioactivity/min) [4]: 7.62 ± 0.30 % radioactivity/min
LAT1-mediated L-[14C]leucine efflux induced (in words) [4]: transported by LAT1 as substrates
Inhibition of LAT1-mediated L-[14C]leucine uptake (in words, rank order) [2]: markedly inhibited and 2-Br-Phe < 2-I-Phe and inhibit
Ki [2]: 9.56 ± 1.67 µM
Ki ratio (LAT2/LAT1) [2]: 9.16
Vmax of efflux (% radioactivity/min) [5]: 39.65 ± 0.44 % radioactivity/min
LAT2-mediated L-[14C]alanine efflux induced (in words) [5]: comparable to that of Phe

N[C@@H](Cc1cccc(Br)c1)C(=O)O [3-Br-Phe, 3-Bromo-L-phenylalanine]
Inhibition of LAT2-mediated L-[14C]alanine uptake (in words, rank order) [3]: 3-Cl-Phe < 3-Br-Phe
Inhibition of LAT1-mediated L-[14C]leucine uptake (in words, rank order) [2]: 3-Cl-Phe < 3-Br-Phe

C[C@](N)(Cc1ccccc1)C(=O)O [α-methyl-Phe, α-Methyl-L-phenylalanine, reference compound]
Inhibition of LAT2-mediated L-[14C]alanine uptake (in words, rank order) [3]: minimal inhibition
Ki [3]: 1680 ± 272 µM
Km [4]: 67.9 ± 7.39 µM
Vmax of efflux (% radioactivity/min) [4]: 15.45 ± 0.45 % radioactivity/min
LAT1-mediated L-[14C]leucine efflux induced (in words) [4]: transported by LAT1 as substrates
Inhibition of LAT1-mediated L-[14C]leucine uptake (in words, rank order) [2]: inhibit
Ki [2]: 157 ± 19.5 µM
Ki ratio (LAT2/LAT1) [2]: 10.74
Vmax of efflux (% radioactivity/min) [5]: 27.28 ± 0.70 % radioactivity/min
LAT2-mediated L-[14C]alanine efflux induced (in words) [5]: not efficiently transported by LAT2
